Tests used:
Assay type in all cases: in vivo
Ctenocephalides felis = Ctenocephalides felis oral test; conditions: 48 h, 100 ppm in cattle blood, after 2 days, adult unfed cat fleas
Description: Ctenocephalides Felis—Oral Test
Solvent: dimethyl sulfoxide
To produce a suitable preparation of active compound, 10 mg of active compound are dissolved in 0.5 ml solvent, and the concentrate is diluted with cattle blood to the desired concentration.
Approximately 20 adult unfed cat fleas (Ctenocephalides felis) are placed in flea chambers. The blood chamber, sealed with parafilm on the bottom, are filled with cattle blood supplied with compound solution and placed on the gauze covered top of the flea chamber, so that the fleas are able to suck the blood. The blood chamber is heated to 37° C. whereas the flea chamber is kept at room temperature.
After 2 days mortality in % is determined. 100% means all the fleas have been killed; 0% means none of the fleas have been killed.

Myzus persicae [1] = experiment: Myzus persicae oral test; conditions: 120 h, 4 ppm, after 5 days
Description: Solvent: 100 parts by weight acetone
To produce a suitable preparation of active compound, 1 part by weight of active compound is mixed with the stated amount of solvent, and the concentrate is diluted with water to the desired concentration.
50 μl compound solution is filled in microtiter plates and 150 μl IPL41 insect medium (33%+15% sugar) is added to obtain a total volume of 200 μl per well. Afterwards the plates are sealed with parafilm through which a mixed population of the green peach aphid (Myzus persicae) can suck on the compound preparation.
(§1) After 5 days mortality in % is determined. 100% means all aphids have been killed and 0% means none of the aphids have been killed.

Myzus persicae [2] = experiment: Myzus persicae spray test; conditions: foliar, 120 h, after 5 days, Chinese cabbage leaf disks
Description: Myzus persicae—Spray Test
(§2) To produce a suitable preparation of active compound, 1 part by weight of active compound is mixed with the stated amount of solvents and is diluted with water, containing an emulsifier concentration of 1000 ppm, to the desired concentration. Further test concentrations are prepared by dilution with emulsifier containing water.
Chinese cabbage (Brassica pekinensis) leaf disks infected with all instars of the green peach aphid (Myzus persicae), are sprayed with a preparation of the active ingredient of the desired concentration.
as §1

Spodoptera frugiperda = Spodoptera frugiperda spray test; conditions: 168 h, after 7 days, larvae on maize leaf sections
Description: Spodoptera frugiperda—Spray Test
as §2
Maize (Zea mays) leaf sections are sprayed with a preparation of the active ingredient of the desired concentration. Once dry, the leaf sections are infested with fall armyworm larvae (Spodoptera frugiperda).
After 7 days mortality in % is determined. 100% means all caterpillars have been killed and 0% means none of the caterpillars have been killed.

Diabrotica balteata = Diabrotica balteata spray test; conditions: Diabrotica balteata, in Triticum aestivum, 168 h, after 7 days, larvae on wheat seeds, read-out: efficacy (seedlings grown up); for pest or weed control at 80 µg/disc, 250 g/ha: 80 μg/well (=250 g/ha); for pest or weed control at 160 µg/disc, 500 g/ha: 160 μg/well (=500 g/ha)
Description: Diabrotica balteata—Spray Test [table] To produce a suitable preparation of active compound, 1 part by weight of active compound is mixed with the stated amount of solvent, and the concentrate is diluted with water, containing an emulsifier concentration of 1000 ppm, to the desired concentration. Further test concentrations are prepared by dilution with emulsifier containing water. Soaked wheat seeds (Triticum aestivum) are placed in a multiple well plate filled with agar and some water and are incubated for 1 day to germinate (5 seeds per well). The germinated wheat seeds are sprayed with a test solution containing the desired concentration of the active ingredient. Afterwards each unit is infected with 10-20 larvae of the banded cucumber beetle (Diabrotica balteata). After 7 days efficacy in % is determined. 100% means all the seedlings have grown up like in the untreated, uninfected control; 0% means none of the seedlings have grown.

Nezara viridula = Nezara viridula spray test; conditions: 96 h, after 4 days, larvae on barley plants
Description: Nezara viridula—Spray Test
To produce a suitable preparation of active compound, 1 part by weight of active compound is mixed with the stated amount of solvent, and the concentrate is diluted with water, containing an emulsifier concentration of 1000 ppm, to the desired concentration. Further test concentrations are prepared by dilution with emulsifier containing water.
Barley plants (Hordeum vulgare) infested with larvae of the southern green stink bug (Nezara viridula) are sprayed with a test solution containing the desired concentration of the active ingredient.
After 4 days mortality in % is determined. 100% means all the stink bugs have been killed: 0% means none of the stink bugs have been killed.

Boophilus microplus = Boophilus microplus injection test; conditions: Rhipicephalus microplus, 168 h; 20 μg/animal injected into the abdomen; adult engorged female ticks; egg deposition after 7 days; read-out: efficacy (infertile eggs)
Description: Boophilus Microplus—Injection Test Solvent: dimethyl sulfoxide To produce a suitable preparation of active compound, 10 mg of active compound are dissolved in 0.5 ml solvent, and the concentrate is diluted with solvent to the desired concentration. Five adult engorged female ticks (Boophilus microplus) are injected with 1 μl compound solution into the abdomen. The ticks are transferred into replica plates and incubated in a climate chamber. After 7 days egg deposition of fertile eggs is monitored. Eggs where fertility is not visible are stored in a climate chamber till hatching after about 42 days. An efficacy of 100% means all eggs are infertile; 0% means all eggs are fertile.

[3] = system: Aedes aegypti strain MONHEIM; experiment: Aedes aegypti test (AEDSAE surface treatment & contact assay); conditions: 24 hours after contact, read-out: efficacy (mortality)
Description: Aedes Aegypti Test (AEDSAE Surface Treatment & Contact Assay)
Solvent: Aceton+2000 ppm rapeseed oil methyl ester (RME)
In order to produce a sufficient, active ingredient containing solution it is necessary to solve the test compound in the solvent-mix (acetone at 2 mg/ml/RME 2000 ppm). This solution is pipetted onto a glazed tile and after evaporation of the acetone, adult mosquitoes of the species Aedes aegypti strain MONHEIM are placed onto the dried surface. The exposure time is 30 minutes.
Mortality in percent (%) is determined 24 hours after contact of the insects to the treated surface. 100% mortality means that all tested insects are dead, whereas 0% means that no insect died.

| SMILES | mortality at 100 ppm (Ctenocephalides felis) [%] | mortality at 4 ppm (Myzus persicae [1]) [%] | mortality at 100 g/ha (Myzus persicae [2]) [%] | mortality at 500 g/ha (Spodoptera frugiperda) [%] | pest or weed control at 80 µg/disc, 250 g/ha (Diabrotica balteata) [%] | pest or weed control at 160 µg/disc, 500 g/ha (Diabrotica balteata) [%] | mortality at 500 g/ha (Myzus persicae [2]) [%] | mortality at 100 g/ha (Nezara viridula) [%] | mortality at 500 g/ha (Nezara viridula) [%] | pest or weed control at 0.02 mg (Boophilus microplus) [%] | mortality at 4 mg/m2 ([3]; surface concentration 4 mg/m^2, exposure 30 minutes) [%] | mortality at 20 mg/m2 ([3]; surface concentration 20 mg/m^2, exposure 30 minutes) [%] | mortality at 100 g/ha (Spodoptera frugiperda) [%] |
| --- | --- | --- | --- | --- | --- | --- | --- | --- | --- | --- | --- | --- | --- |
| C[C@H](NC(=O)c1cc(F)c(Cl)c(F)c1)c1ncnn1-c1ccc(C#N)cn1 [Example I-021] | 100 | 100 | 100 | 100 |  |  |  |  |  |  |  |  |  |
| C[C@H](NC(=O)c1cc(Cl)cc(C(F)(F)F)c1)c1ncnn1-c1ccc(NS(C)(=O)=O)cn1 [Example I-054] |  | 100 | 90 |  | 100 | 100 | 90 | 90 | 100 |  |  |  |  |
| C[C@H](NC(=O)c1cncc(I)c1)c1ncnn1-c1ccc(C#N)cn1 [Example I-063] | 100 | 100 |  | 83 | 100 | 100 |  |  |  | 100 | 90 to 100 | 90 to 100 |  |
| CON=Cc1ccc(-n2ncnc2[C@H](C)NC(=O)c2cc(Cl)cc(C(F)(F)F)c2)nc1 [Example I-065, 3-chloro-N-[(1S)-1-(1-{5-[(methoxyimino)methyl]pyridin-2-yl}-1H-1,2,4-triazol-5-yl)ethyl]-5-(trifluoromethyl)benzamide] |  |  |  | 100 | 100 | 100 | 90 |  | 90 |  |  |  | 100 |
| C[C@H](NC(=O)c1cc(Cl)cc(C(F)(F)F)c1)c1ncnn1-c1ccc(NC(=O)CC#N)cn1 [Example I-073] | 100 |  |  |  | 100 | 100 | 90 |  |  | 100 |  |  |  |
| C[C@H](NC(=O)c1cc(Cl)cc(C(F)(F)F)c1)c1ncnn1-c1ccc(NC(=S)C2CC2)cn1 [Example I-098] | 100 | 100 | 90 | 100 | 100 | 100 | 90 |  | 90 |  |  |  | 100 |
| C[C@H](NC(=O)c1cc(Cl)cc(C(F)(F)F)c1)c1ncnn1-c1ccc(NC(=O)C2(Cl)CC2)cn1 [Example I-104] |  | 90 |  | 100 |  | 100 | 90 |  | 90 |  |  |  | 100 |
| C[C@H](NC(=O)c1cc(Cl)cc(OC(F)(F)F)c1)c1ncnn1-c1ccc(NC(=O)C2CC2)cn1 [Example I-105] |  | 100 |  | 100 | 100 | 100 | 90 | 100 | 100 |  |  |  | 100 |
| CC(=O)Nc1ccc(-n2ncnc2[C@H](C)NC(=O)c2cc(Cl)cc(OC(F)(F)F)c2)nc1 [Example I-106] |  | 100 |  | 100 | 100 | 100 | 90 |  | 100 |  |  |  | 100 |
| C[C@H](NC(=O)c1cc(Cl)cc(OC(F)F)c1)c1ncnn1-c1ccc(C#N)cn1 [Example I-107] |  | 100 | 90 | 100 |  | 100 | 90 | 100 | 100 |  |  |  | 100 |
| C[C@H](NC(=O)c1cc(Cl)cc(C(F)(F)F)c1)c1ncnn1-c1ccc(C(=O)N(C)C2CC2)cn1 [Example I-110, 6-(5-{(1S)-1-[3-chloro-5-(trifluoromethyl)benzamido]ethyl}-1H-1,2,4-triazol-1-yl)-N-cyclopropyl-N-methylnicotinamide] |  |  | 90 | 100 |  | 100 | 100 |  | 90 |  |  |  | 100 |
| Cc1nc([C@H](C)NC(=O)c2cc(Cl)cc(Cl)c2)n(-c2ccc(C#N)cn2)n1 [Example I-115] |  | 100 | 90 | 100 |  | 100 | 100 |  | 100 |  |  |  | 100 |
| Cc1nc([C@H](C)NC(=O)c2cc(Cl)cc(OC(F)(F)F)c2)n(-c2ccc(C#N)cn2)n1 [Example I-116] |  | 100 | 100 | 100 |  | 100 | 100 | 90 | 100 |  |  |  | 100 |
